Like-named read-outs stand apart in the source and are kept apart here. Positions of bridges follow the written chain, without caps; N, C: chain ends. Non-standard residues stand in square brackets, D forms with d. Chains are numbered I, II in the order given. *: point of attachment. C18 diacid = O=C(O)CCCCCCCCCCCCCCCCC(=O)*; NMeY = CN[C@@H](Cc1ccc(O)cc1)C(=O)O; Aib = CC(C)(N)C(=O)O
Key:
human GIPR = biological target: T1, human GIPR (Homo sapiens, UniProt P48546); test: Human GIPR agonist activity, intracellular cAMP accumulation; type: cell-based
T1 construct: HEK-293T cells overexpressing full-length human GIPR; FLAG (N); host or cells: HEK-293T
T1 sequence (P48546 22-466): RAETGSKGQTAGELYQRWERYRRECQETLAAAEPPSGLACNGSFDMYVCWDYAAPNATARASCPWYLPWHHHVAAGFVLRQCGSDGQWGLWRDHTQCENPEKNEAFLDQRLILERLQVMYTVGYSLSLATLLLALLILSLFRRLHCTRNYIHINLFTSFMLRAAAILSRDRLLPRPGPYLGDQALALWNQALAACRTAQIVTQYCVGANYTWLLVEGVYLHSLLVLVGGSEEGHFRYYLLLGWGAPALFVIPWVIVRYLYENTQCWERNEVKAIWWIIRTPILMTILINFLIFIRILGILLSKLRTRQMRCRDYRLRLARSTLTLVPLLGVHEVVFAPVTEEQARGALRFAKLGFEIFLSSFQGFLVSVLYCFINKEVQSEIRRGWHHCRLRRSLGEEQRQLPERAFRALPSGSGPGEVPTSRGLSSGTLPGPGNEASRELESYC
Description: Cells are cultured per the manufacturer's protocol in DMEM with 10% fetal bovine serum and 1 μg/mL puromycin and stored in frozen aliquots to be used as assay ready cells. On the day of the assay, cells are removed from frozen storage, washed two times in 1× Kreb's Ringer Buffer (Zenbio, Research Triangle Park, N.C.), and re-suspended to a concentration of 4×10^5 cells/mL in 1× Kreb's Ringer Buffer. […] Cells are incubated with test compound for 1 hr at room temperature in the dark, and cAMP accumulation is measured using the Cisbio HiRange cAMP assay kit (Bedford, Mass.) per the manufacturer's protocol. Anti-cAMP antibody and d2-cAMP tracer reagents diluted in lysis/detection buffer are incubated in the dark for 1 hr, and results are measured on an Envision plate reader (Perkin Elmer, Waltham, Mass.). Data is normalized using 1 nM GIP as 100% activity, and DMSO alone as 0% activity.

human GLP-1R = biological target: T2, human GLP-1R (Homo sapiens, UniProt P43220); test: Human GLP1R agonist activity, intracellular cAMP accumulation; type: cell-based; conditions: HEK-293T cells overexpressing human GLP-1R, 1 hr
T2 construct: HEK-293T cells overexpressing full-length human GLP-1R; FLAG (N); host or cells: HEK-293T
T2 sequence (P43220 24-463): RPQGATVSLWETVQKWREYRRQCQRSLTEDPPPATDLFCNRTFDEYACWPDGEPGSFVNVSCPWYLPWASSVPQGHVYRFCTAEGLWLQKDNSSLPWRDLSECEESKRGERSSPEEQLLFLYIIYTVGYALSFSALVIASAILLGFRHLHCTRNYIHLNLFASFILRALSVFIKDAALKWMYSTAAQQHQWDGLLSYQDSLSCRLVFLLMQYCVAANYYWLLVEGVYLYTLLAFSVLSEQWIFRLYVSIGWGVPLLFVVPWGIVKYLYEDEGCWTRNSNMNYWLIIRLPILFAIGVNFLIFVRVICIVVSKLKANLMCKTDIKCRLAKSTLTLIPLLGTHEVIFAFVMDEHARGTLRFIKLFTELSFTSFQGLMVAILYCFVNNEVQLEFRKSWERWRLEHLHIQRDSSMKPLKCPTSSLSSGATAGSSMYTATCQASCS
Outline: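 Frozen assay-ready cells washed and resuspended at 4×10^5 cells/mL in Krebs Ringer buffer, then incubated with compound 1 hr at room temperature in the dark. cAMP read by HTRF (anti-cAMP antibody, d2-cAMP tracer). Normalised to 1 nm GLP-1 (100%) and DMSO (0%).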

[1] = Solubility in phosphate buffer pH 7.4
Outline: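 3 mg of peptide treated with 100 μL portions of 200 mM phosphate buffer pH 7.4, sonicating/vortexing up to 1 min, with further buffer added until fully dissolved. Solubility then quantified by HPLC.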

C57BL/6J mice = test: Oral glucose tolerance test (OGTT); type: in vivo; conditions: 3 nmol/kg s.c., 24 hours before glucose loading
Outline: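 Peptide or vehicle given s.c. at 0.1, 0.3, 3 or 10 nmol/kg (peptide-dependent), 24 h before oral 50% dextrose at 5 ml/kg unless stated otherwise. Blood glucose read at 0, 15, 30 and 60 min. % inhibition = (1−(AUC cpd−AUC naïve)/(AUC veh−AUC naïve))×100.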

Dogs = type: in vivo; conditions: 10 nmol/kg s.c.
Description: Dogs are transferred to an observation cage (700 mm W×700 mm D×700 mm H [W×D×H], without food) on 1 day before each apomorphine challenge. The dogs are weighed by using an electronic balance then test peptide compounds and vehicle will be administrated via the subcutaneous route. Apomorphine is challenged at 8 hr after the administration and emetic events will be monitored for 1 h by video recording. The second apomorphine challenge will be 72 hr after the administration and emetic events will be recorded by the same protocol. Emesis symptoms are continuously recorded using a video camera and stored on a blue ray disc. Observation of symptoms include retching (a rhythmic contraction of the abdomen) and vomiting (vomiting behavior, including the elimination of vomitus or similar behavior). Besides, the combination of retching and vomiting is defined as emesis, and the number of episodes, latency (time elapsed from morphine administration until the onset of the first emesis symptom), duration (time elapsed between the onset of the first and final episodes of emesis), and frequency (number of animals showing emesis/number of experimental animals) of each of these symptoms is calculated. The latency in cases where emesis symptoms are not noted is taken as the maximum value (1 h for apomorphine challenge) at the end of observation. When the duration of the emesis symptoms is less than 1 min, the duration is recorded, for convenience, as 1 min.

[2] = Human GLP1R cAMP EC50, HEK293T (nM)
[3] = pH 7.4, aqueous buffer, pH 7.4 Phosphate Buffer - Solubility, 200 mM Phosphate buffer pH 7.4
[4] = pH 7.4, solubility in phosphate buffer at pH 7.4, 200 mM phosphate buffer pH 7.4
[5] = HEK-293T cells overexpressing human GIPR, cAMP accumulation, 1 hr, read-out: Human GIPR cAMP EC50, HEK293T
[6] = read-out: Human GLP1R cAMP EC50, HEK293T

Row | Molecule | EC50 (human GIPR) [nM] | EC50 (human GLP-1R; [2]) [nM] | solubility [1, 3] [mg/mL] | solubility [1, 4] [mg/mL] | EC50 (human GIPR; [5]) [nM] | EC50 (human GLP-1R; [6]) [nM] | solubility ([1]; pH 7.4) [mg/mL] | solubility ([1]; pH 7.4, aqueous buffer) [mg/mL] | Oral Glucose Tolerance Test Percent decrease in blood glucose AUC (%) over 60 mins (C57BL/6J mice) | % inhibition of emetic events at doses (nmol/kg) shown in dog apomorphine model (Dogs; after 8 hrs (upper)) | % inhibition of emetic events at doses (nmol/kg) shown in dog apomorphine model (Dogs; after 72 hours (lower))
1 | I: H-[NMeY][Aib]EGTFISDYSIALDR[Aib]AQ[Aib]KFVNWLLAQSPSSGAPPPS-OH / II: {C18 diacid}-PAPAPGG (amide I:21-II:C) [Compound 103] | 0.0017 | 29.5 | ≥ 60 | ≥ 15 |  |  |  |  |  |  | 
2 | CC[C@H](C)[C@H](NC(=O)[C@H](CO)NC(=O)[C@H](Cc1ccc(O)cc1)NC(=O)[C@H](CC(=O)O)NC(=O)[C@H](CO)NC(=O)[C@@H](NC(=O)[C@H](Cc1ccccc1)NC(=O)[C@@H](NC(=O)CNC(=O)[C@H](CCC(=O)O)NC(=O)C(C)(C)NC(=O)[C@H](Cc1ccc(O)cc1)NC)[C@@H](C)O)[C@@H](C)CC)C(=O)N[C@@H](C)C(=O)N[C@@H](CCCCNC(=O)CNC(=O)CNC(=O)CNC(=O)CNC(=O)CNC(=O)CCCCCCCCCCCCCCCCC(=O)O)C(=O)N[C@@H](CC(=O)O)C(=O)N[C@@H](CCCNC(=N)N)C(=O)NC(C)(C)C(=O)N[C@@H](C)C(=O)N[C@@H](CCC(N)=O)C(=O)NC(C)(C)C(=O)N[C@@H](CC(=O)O)C(=O)N[C@@H](Cc1ccccc1)C(=O)N[C@H](C(=O)N[C@@H](CC(N)=O)C(=O)N[C@@H](Cc1c[nH]c2ccccc12)C(=O)N[C@@H](CC(C)C)C(=O)N[C@@H](CC(C)C)C(=O)N[C@@H](C)C(=O)N[C@@H](CCC(N)=O)C(=O)N[C@@H](CO)C(=O)N1CCC[C@H]1C(=O)N[C@@H](CO)C(=O)N[C@@H](CO)C(=O)NCC(=O)O)C(C)C [Compound 116] |  |  |  |  | 0.001 | 110 | ≥ 15 | ≥ 30 |  |  | 
3 | CC[C@H](C)[C@H](NC(=O)[C@H](Cc1ccccc1)NC(=O)[C@@H](NC(=O)CNC(=O)[C@H](CCC(=O)O)NC(=O)C(C)(C)NC(=O)[C@@H](N)Cc1ccc(O)cc1)[C@@H](C)O)C(=O)N[C@@H](CO)C(=O)N[C@@H](CC(=O)O)C(=O)N[C@@H](Cc1ccc(O)cc1)C(=O)N[C@@H](CO)C(=O)N[C@H](C(=O)NC(C)(C)C(=O)N[C@@H](CCCCNC(=O)CNC(=O)CNC(=O)CNC(=O)CNC(=O)CNC(=O)CCCCCCCCCCCCCCCCC(=O)O)C(=O)N[C@@H](CC(=O)O)C(=O)N[C@@H](CCCNC(=N)N)C(=O)NC(C)(C)C(=O)N[C@@H](C)C(=O)N[C@@H](CCC(N)=O)C(=O)NC(C)(C)C(=O)N[C@@H](CC(=O)O)C(=O)N[C@@H](Cc1ccccc1)C(=O)N[C@H](C(=O)N[C@@H](CC(N)=O)C(=O)N[C@@H](Cc1c[nH]c2ccccc12)C(=O)N[C@@H](CC(C)C)C(=O)N[C@@H](CC(C)C)C(=O)N[C@@H](C)C(=O)N[C@@H](CCC(N)=O)C(=O)N[C@@H](CCCNC(=N)N)C(=O)NCC(=O)O)C(C)C)[C@@H](C)CC [Compound 137] |  |  |  |  | 0.0013 | 3.47 | ≥ 15 | ≥ 30 | 23% (3 nmol/kg) |  | 
4 | CC[C@H](C)[C@H](NC(=O)[C@H](Cc1ccccc1)NC(=O)[C@@H](NC(=O)CNC(=O)[C@H](CCC(=O)O)NC(=O)C(C)(C)NC(=O)[C@H](Cc1ccc(O)cc1)NC)[C@@H](C)O)C(=O)N[C@@H](CO)C(=O)N[C@@H](CC(=O)O)C(=O)N[C@@H](Cc1ccc(O)cc1)C(=O)N[C@@H](CO)C(=O)N[C@H](C(=O)NC(C)(C)C(=O)N[C@@H](CCCCNC(=O)CNC(=O)CNC(=O)CNC(=O)CNC(=O)CNC(=O)CCCCCCCCCCCCCCCCCCC(=O)O)C(=O)N[C@@H](CC(=O)O)C(=O)N[C@@H](CCCNC(=N)N)C(=O)NC(C)(C)C(=O)N[C@@H](C)C(=O)N[C@@H](CCC(N)=O)C(=O)NC(C)(C)C(=O)N[C@@H](CC(=O)O)C(=O)N[C@@H](Cc1ccccc1)C(=O)N[C@H](C(=O)N[C@@H](CC(N)=O)C(=O)N[C@@H](Cc1c[nH]c2ccccc12)C(=O)N[C@@H](CC(C)C)C(=O)N[C@@H](CC(C)C)C(=O)N[C@@H](C)C(=O)N[C@@H](CCC(N)=O)C(=O)N[C@@H](CCCNC(=N)N)C(=O)NCC(=O)O)C(C)C)[C@@H](C)CC [Compound 67] |  |  |  |  | 0.0013 | 33.9 | ≥ 15 | ≥ 30 |  |  | 
5 | CC[C@H](C)[C@H](NC(=O)[C@H](CO)NC(=O)[C@H](Cc1ccc(O)cc1)NC(=O)[C@H](CC(=O)O)NC(=O)[C@H](CO)NC(=O)[C@@H](NC(=O)[C@H](Cc1ccccc1)NC(=O)[C@@H](NC(=O)CNC(=O)[C@H](CCC(=O)O)NC(=O)C(C)(C)NC(=O)[C@@H](N)Cc1ccc(O)cc1)[C@@H](C)O)[C@@H](C)CC)C(=O)N[C@@H](C)C(=O)N[C@@H](CCCCNC(=O)CNC(=O)CNC(=O)CNC(=O)CNC(=O)CNC(=O)CCCCCCCCCCCCCCCCC(=O)O)C(=O)N[C@@H](CC(=O)O)C(=O)N[C@@H](CCCNC(=N)N)C(=O)NC(C)(C)C(=O)N[C@@H](C)C(=O)N[C@@H](CCC(N)=O)C(=O)NC(C)(C)C(=O)N[C@@H](CC(=O)O)C(=O)N[C@@H](Cc1ccccc1)C(=O)N[C@H](C(=O)N[C@@H](CC(N)=O)C(=O)N[C@@H](Cc1c[nH]c2ccccc12)C(=O)N[C@@H](CC(C)C)C(=O)N[C@@H](CC(C)C)C(=O)N[C@@H](C)C(=O)N[C@@H](CCC(N)=O)C(=O)N[C@@H](CO)C(=O)N1CCC[C@H]1C(=O)NCC(=O)O)C(C)C [Compound 128] |  |  |  |  |  |  | ≥ 15 | ≥ 30 | 57% (3 nmol/kg) | 56% (10 nmol/kg) | 60% (10 nmol/kg)
6 | CC[C@H](C)[C@H](NC(=O)[C@H](CO)NC(=O)[C@H](Cc1ccc(O)cc1)NC(=O)[C@H](CC(=O)O)NC(=O)[C@H](CO)NC(=O)[C@@H](NC(=O)[C@H](Cc1ccccc1)NC(=O)[C@@H](NC(=O)CNC(=O)[C@H](CCC(=O)O)NC(=O)C(C)(C)NC(=O)[C@H](Cc1ccc(O)cc1)NC)[C@@H](C)O)[C@@H](C)CC)C(=O)N[C@@H](C)C(=O)N[C@@H](CCCCNC(=O)CNC(=O)CNC(=O)CNC(=O)CNC(=O)CNC(=O)CCCCCCCCCCCCCCCCC(=O)O)C(=O)N[C@@H](CC(=O)O)C(=O)N[C@@H](CCCNC(=N)N)C(=O)NC(C)(C)C(=O)N[C@@H](C)C(=O)N[C@@H](CCC(N)=O)C(=O)NC(C)(C)C(=O)N[C@@H](CC(=O)O)C(=O)N[C@@H](Cc1ccccc1)C(=O)N[C@H](C(=O)N[C@@H](CC(N)=O)C(=O)N[C@@H](Cc1c[nH]c2ccccc12)C(=O)N[C@@H](CC(C)C)C(=O)N[C@@H](CC(C)C)C(=O)N[C@@H](C)C(=O)N[C@@H](CCC(N)=O)C(=O)N[C@@H](CCCNC(=N)N)C(=O)N1CCC[C@H]1C(=O)N[C@@H](CO)C(=O)N[C@@H](CO)C(=O)NCC(=O)N[C@@H](C)C(=O)N1CCC[C@H]1C(=O)N1CCC[C@H]1C(=O)N1CCC[C@H]1C(=O)N[C@@H](CO)C(=O)O)C(C)C [Compound 43] | 0.001 | 61.7 | ≥ 30 | ≥ 15 |  |  |  |  | 97% (3 nmol/kg) |  | 

Reference: patent US20230143604A1, “QW DOSING OF GIP RECEPTOR AGONIST PEPTIDE COMPOUNDS AND USES THEREOF” (TAKEDA PHARMACEUTICAL COMPANY LIMITED, priority 2020, published 2023)
